This is an account of results in ChEMBL document CHEMBL3400099, “Novel thiazole-thiophene conjugates as adenosine receptor antagonists: synthesis, biological evaluation and docking studies” (Bioorg Med Chem Lett, 2015).

In one assay the target is T1, Adenosine receptor A3 (Homo sapiens, UniProt P0DMS8).
T1 sequence (P0DMS8 whole entry): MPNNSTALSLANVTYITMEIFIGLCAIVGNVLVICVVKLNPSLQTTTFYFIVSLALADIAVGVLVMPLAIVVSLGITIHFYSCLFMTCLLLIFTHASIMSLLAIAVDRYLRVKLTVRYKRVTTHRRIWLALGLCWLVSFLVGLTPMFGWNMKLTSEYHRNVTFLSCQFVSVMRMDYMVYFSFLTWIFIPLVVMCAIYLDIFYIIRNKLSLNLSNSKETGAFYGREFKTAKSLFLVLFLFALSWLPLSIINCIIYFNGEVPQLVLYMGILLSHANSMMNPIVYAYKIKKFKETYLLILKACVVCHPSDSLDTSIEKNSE
Kind of assay: Displacement of [3H]HEMADO from human adenosine A3 receptor expressed in CHO cells. In kind it is cell-based. For orientation: Displacement assays read how much labelled ligand stays bound in the presence of the test substance.

The target in assay [1] is Adenosine receptors; A1 & A3 (Homo sapiens) (UniProt P30542+P0DMS8). In words: Selectivity ratio of Ki for human adenosine A1 receptor to Ki for human adenosine A3 receptor.
The species entered for a further assay is Homo sapiens. In words: Selectivity ratio of Ki for human adenosine A2A receptor to Ki for human adenosine A3 receptor.
In a further assay the target is T2, Adenosine receptor A1 (Homo sapiens, UniProt P30542).
T2 sequence (P30542 whole entry): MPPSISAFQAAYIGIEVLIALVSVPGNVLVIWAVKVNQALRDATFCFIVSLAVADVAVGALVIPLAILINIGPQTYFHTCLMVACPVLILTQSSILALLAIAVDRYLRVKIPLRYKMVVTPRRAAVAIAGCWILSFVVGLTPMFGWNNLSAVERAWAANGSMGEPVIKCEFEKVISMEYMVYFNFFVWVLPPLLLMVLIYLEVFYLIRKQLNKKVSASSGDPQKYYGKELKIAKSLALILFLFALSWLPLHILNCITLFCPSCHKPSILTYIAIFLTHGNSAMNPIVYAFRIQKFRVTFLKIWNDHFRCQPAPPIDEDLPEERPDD
Kind of assay: Displacement of [3H]CCPA from human adenosine A1 receptor expressed in CHO cells. In kind it is cell-based.

The next assay concerns the target Adenosine receptor A2a (Homo sapiens, UniProt P29274). In words: Displacement of [3H]NECA from human adenosine A2A receptor expressed in CHO cells. The assay is classed as cell-based.

Some results are limits rather than exact numbers.

Sequence of Adenosine receptor A2a (P29274 whole entry): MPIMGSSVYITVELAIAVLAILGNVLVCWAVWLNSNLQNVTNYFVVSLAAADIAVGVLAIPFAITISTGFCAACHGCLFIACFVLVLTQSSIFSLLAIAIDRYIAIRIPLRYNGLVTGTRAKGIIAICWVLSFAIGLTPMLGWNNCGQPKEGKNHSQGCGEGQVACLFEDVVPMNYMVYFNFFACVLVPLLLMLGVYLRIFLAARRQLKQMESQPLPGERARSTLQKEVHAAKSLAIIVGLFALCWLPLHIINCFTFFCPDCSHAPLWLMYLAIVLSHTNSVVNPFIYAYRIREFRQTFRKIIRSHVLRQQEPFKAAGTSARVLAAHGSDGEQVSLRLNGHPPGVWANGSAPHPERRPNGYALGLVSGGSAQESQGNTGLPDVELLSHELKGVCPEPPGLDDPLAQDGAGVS

The Ki is a dissociation constant, usually derived from enzyme kinetics or from competition with a known ligand. A high value points to a looser hold on the target. For the molecule `CCOC(=O)c1c(NC(=O)c2sc(NC(=O)OC)nc2N(C)C)sc2c1CCCC2`, the Ki on Adenosine receptor A3 is more than 30 µM; on Adenosine receptor A1 it was more than 100 µM; on Adenosine receptor A2a, more than 100 µM. Also, the Selectivity ratio (in assay [1]; in the assay filed under Homo sapiens) was more than 3.3 each time.
With `Cc1ccc(Nc2nc(-c3ccc(C)cc3)c(C(=O)Nc3sc4c(c3C(N)=O)CCCC4)s2)cc1`, the values for the Ki at Adenosine receptor A3, at Adenosine receptor A1 and on Adenosine receptor A2a were 0.33 µM, more than 30 µM and more than 10 µM, respectively. The Selectivity ratio in assay [1] was more than 90; in the assay filed under Homo sapiens, more than 30.
Take `CN(C)c1nc(Nc2ccccc2)sc1C(=O)Nc1sc2c(c1C#N)CCCC2`: the Ki is 35.6 µM at Adenosine receptor A3, more than 30 µM at Adenosine receptor A1 and more than 30 µM on Adenosine receptor A2a. The Selectivity ratio (in assay [1]; in the assay listed under Homo sapiens) was more than 0.84 throughout.
In the case of `Cc1ccc(Nc2nc(N(C)C)c(C(=O)Nc3sc4c(c3C#N)CCCC4)s2)cc1`, the Ki on Adenosine receptor A3 was 34 µM; on Adenosine receptor A1 it was more than 100 µM; at Adenosine receptor A2a, more than 10 µM. The Selectivity ratio in assay [1] is more than 2.9; in the assay filed under Homo sapiens it was more than 0.29.
In the case of `CCOC(=O)c1c(NC(=O)c2sc(Nc3ccccc3)nc2N(C)C)sc2c1CCCC2`, the figures for the inhibition constant (Ki) on Adenosine receptor A3, at Adenosine receptor A1 and at Adenosine receptor A2a were 4.12 µM, 40.8 µM and 6.45 µM, respectively. The Selectivity ratio came to 9.9 in assay [1] and 1.6 in the assay filed under Homo sapiens.
On to `CCOC(=O)c1c(NC(=O)c2sc(Nc3ccc(C)cc3)nc2-c2ccc(C)cc2)sc2c1CCCC2`, for which the Ki on Adenosine receptor A3 is 2.16 µM; on Adenosine receptor A1, more than 30 µM; on Adenosine receptor A2a, more than 30 µM. The Selectivity ratio (in assay [1]; in the assay filed under Homo sapiens) was more than 14 each time.
Regarding `CCOC(=O)c1c(NC(=O)c2sc(Nc3ccc(OC)cc3)nc2-c2ccc(C)cc2)sc2c1CCCC2`, the Ki was 0.52 µM on Adenosine receptor A3, more than 10 µM at Adenosine receptor A1 and more than 10 µM on Adenosine receptor A2a. Besides, the Selectivity ratio (in assay [1]; in the assay filed under Homo sapiens) was more than 19 in each case.
For `CCOC(=O)c1c(NC(=O)c2sc(Nc3ccc(C)cc3)nc2C)sc2c1CCCC2`, the values for the Ki at Adenosine receptor A3, at Adenosine receptor A1 and on Adenosine receptor A2a were 8.22 µM, more than 30 µM and more than 30 µM, respectively. Also, the Selectivity ratio (in assay [1]; in the assay filed under Homo sapiens) was more than 3.7 throughout.
Consider `Cc1ccc(Nc2nc(N(C)C)c(C(=O)Nc3sc4c(c3C(N)=O)CCCC4)s2)cc1`, for which the figures for the inhibition constant (Ki) at Adenosine receptor A3, on Adenosine receptor A1 and at Adenosine receptor A2a were 7.13 µM, 32.4 µM and 22.3 µM, respectively. The figures for the Selectivity ratio (in assay [1]; in the assay listed under Homo sapiens) were 4.5 and 3.1, respectively.
Consider `CCOC(=O)c1c(NC(=O)c2sc(Nc3ccccc3)nc2-c2ccc(C)cc2)sc2c1CCCC2`, for which the Ki at Adenosine receptor A3 was 4.09 µM; at Adenosine receptor A1 it was 7.75 µM; at Adenosine receptor A2a, 28.4 µM. Also, the results for the Selectivity ratio (in assay [1]; in the assay filed under Homo sapiens) were 1.9 and 6.9, respectively.
On to `CCOC(=O)c1c(NC(=O)c2sc(Nc3ccc(OC)cc3)nc2N(C)C)sc(C(=O)OC)c1C`, for which the Ki was found to be 2.73 µM on Adenosine receptor A3, 14 µM on Adenosine receptor A1 and 9.66 µM on Adenosine receptor A2a. For the same molecule, the values for the Selectivity ratio (in assay [1]; in the assay filed under Homo sapiens) were 5.1 and 3.5, respectively.
With `Cc1ccc(-c2nc(Nc3ccccc3)sc2C(=O)Nc2sc3c(c2C(N)=O)CCCC3)cc1`, the figures for the Ki on Adenosine receptor A3, on Adenosine receptor A1 and on Adenosine receptor A2a were 0.334 µM, 2.38 µM and 3.44 µM, respectively. The Selectivity ratio in assay [1] came to 7.1; in the assay filed under Homo sapiens, 10.
Consider `COc1ccc(Nc2nc(-c3ccc(C)cc3)c(C(=O)Nc3sc4c(c3C#N)CCCC4)s2)cc1`, for which the Ki at Adenosine receptor A3 is 9.56 µM; at Adenosine receptor A1, more than 30 µM; on Adenosine receptor A2a, more than 30 µM. Moreover, the Selectivity ratio (in assay [1]; in the assay listed under Homo sapiens) was more than 3.1 throughout.
For `CCOC(=O)c1c(NC(=O)c2sc(Nc3ccc(C)cc3)nc2N(C)C)sc(C(=O)OC)c1C`, the Ki is 3.91 µM at Adenosine receptor A3, 19 µM at Adenosine receptor A1 and 26.6 µM at Adenosine receptor A2a. Besides, the results for the Selectivity ratio (in assay [1]; in the assay filed under Homo sapiens) were 4.9 and 6.8, respectively.
For `Cc1ccc(Nc2nc(-c3ccc(C)cc3)c(C(=O)Nc3sc4c(c3C#N)CCCC4)s2)cc1`, the Ki on Adenosine receptor A3, at Adenosine receptor A1 and at Adenosine receptor A2a was more than 10 µM throughout.
`CCOC(=O)c1c(NC(=O)c2sc(Nc3ccc(C)cc3)nc2C)sc(C(=O)OC)c1C`: the Ki on Adenosine receptor A3, on Adenosine receptor A1 and on Adenosine receptor A2a was more than 30 µM throughout. In the assay listed under Homo sapiens, the Selectivity ratio is 0.33.
As to `CCOC(=O)c1c(NC(=O)c2sc(Nc3ccc(C)cc3)nc2N(C)C)sc2c1CCCC2`, the results for the Ki on Adenosine receptor A3, at Adenosine receptor A1 and on Adenosine receptor A2a were 4.71 µM, 23.5 µM and 18 µM, respectively. Further, the results for the Selectivity ratio (in assay [1]; in the assay listed under Homo sapiens) were 5 and 3.8, respectively.
On to `Cc1ccc(Nc2nc(C)c(C(=O)Nc3sc4c(c3C#N)CCCC4)s2)cc1`, for which the Ki at Adenosine receptor A3 is 3.87 µM; on Adenosine receptor A1 it was more than 30 µM; at Adenosine receptor A2a it was 5.67 µM. The results for the Selectivity ratio (in assay [1]; in the assay listed under Homo sapiens) were more than 7.8 and 1.5, respectively.
